The source of these data is US12559506B2, “Indazole based compounds and associated methods of use” (Arvinas Operations, Inc., priority 2021, dated 2026).

What all share (type): cell-based
In one test the target is T1, G2019S LRRK2 (Homo sapiens, UniProt Q5S007, G2019S).
T1 construct: expressed in transfected cells; host or cells: HEK293 (ATCC CRL-1573), transient transfection, mammalian expression vector with ubiquitin promoter
Kind of test: LRRK2 degradation assay, HiBit-tagged G2019S LRRK2 expressed from plasmid in HEK293 cells (Nano-Glo Dual-Luciferase). Conditions: HiBit-tagged G2019S LRRK2 in HEK293 cells, 24 hours. The method, boiled down:
(§1)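 HEK293 cells co-transfected with C-terminal HiBiT-tagged LRRK2 (WT or G2019S, ubiquitin promoter) and firefly luciferase, then dosed 24 h at 37 °C. HiBiT/firefly ratio normalized to DMSO median; DC50 and Dmax from per-plate curve fits, six replicates over two days.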
(HiBiT is a short tag that completes a luciferase, so light tracks the accessible tagged protein.)

For another test, the target named is T2, wildtype LRRK2 (Homo sapiens, UniProt Q5S007).
T2 construct: expressed in transfected cells; host or cells: HEK293 (ATCC CRL-1573), transient transfection, mammalian expression vector with ubiquitin promoter
Kind of test: LRRK2 degradation assay, HiBit-tagged wildtype LRRK2 expressed from plasmid in HEK293 cells (Nano-Glo Dual-Luciferase). As to conditions: HiBit-tagged wildtype LRRK2 in HEK293 cells, 24 hours; for Dmax: read-out: **WT Dmax (%); for DC50: read-out: *WT DC50. The method, boiled down: as §1

Test [1] concerns the target T3, LRRK2 (endogenous, HiBit tagged) (Homo sapiens, UniProt Q5S007).
T3 construct: endogenous in cells; host or cells: HEK293 cells with HiBit knock-in at the endogenous LRRK2 locus, stably expressing firefly luciferase
Description: Endogenous LRRK2 degradation assay, endogenous gene C-terminally HiBit-tagged in HEK293 cells (Nano-Glo Dual Luciferase). Conditions: endogenous HiBit-tagged LRRK2 in HEK293 cells, 24 hours; for Dmax: read-out: **Endogenous WT Dmax (%); for DC50: read-out: *Endogenous WT DC50. The method, boiled down:
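LRRK2-HiBit quantified via Nano-Glo Dual Luciferase in HEK293 knock-in cells co-expressing firefly luciferase, after 24 h exposure to compound (1 μM final top, 1:3, 11 points). Values normalised to DMSO median per plate and curve-fitted; Alamar Blue viability run alongside.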

A value given as a limit tells only on which side of the number the result lay.

T1 sequence (Q5S007 whole entry G2019S): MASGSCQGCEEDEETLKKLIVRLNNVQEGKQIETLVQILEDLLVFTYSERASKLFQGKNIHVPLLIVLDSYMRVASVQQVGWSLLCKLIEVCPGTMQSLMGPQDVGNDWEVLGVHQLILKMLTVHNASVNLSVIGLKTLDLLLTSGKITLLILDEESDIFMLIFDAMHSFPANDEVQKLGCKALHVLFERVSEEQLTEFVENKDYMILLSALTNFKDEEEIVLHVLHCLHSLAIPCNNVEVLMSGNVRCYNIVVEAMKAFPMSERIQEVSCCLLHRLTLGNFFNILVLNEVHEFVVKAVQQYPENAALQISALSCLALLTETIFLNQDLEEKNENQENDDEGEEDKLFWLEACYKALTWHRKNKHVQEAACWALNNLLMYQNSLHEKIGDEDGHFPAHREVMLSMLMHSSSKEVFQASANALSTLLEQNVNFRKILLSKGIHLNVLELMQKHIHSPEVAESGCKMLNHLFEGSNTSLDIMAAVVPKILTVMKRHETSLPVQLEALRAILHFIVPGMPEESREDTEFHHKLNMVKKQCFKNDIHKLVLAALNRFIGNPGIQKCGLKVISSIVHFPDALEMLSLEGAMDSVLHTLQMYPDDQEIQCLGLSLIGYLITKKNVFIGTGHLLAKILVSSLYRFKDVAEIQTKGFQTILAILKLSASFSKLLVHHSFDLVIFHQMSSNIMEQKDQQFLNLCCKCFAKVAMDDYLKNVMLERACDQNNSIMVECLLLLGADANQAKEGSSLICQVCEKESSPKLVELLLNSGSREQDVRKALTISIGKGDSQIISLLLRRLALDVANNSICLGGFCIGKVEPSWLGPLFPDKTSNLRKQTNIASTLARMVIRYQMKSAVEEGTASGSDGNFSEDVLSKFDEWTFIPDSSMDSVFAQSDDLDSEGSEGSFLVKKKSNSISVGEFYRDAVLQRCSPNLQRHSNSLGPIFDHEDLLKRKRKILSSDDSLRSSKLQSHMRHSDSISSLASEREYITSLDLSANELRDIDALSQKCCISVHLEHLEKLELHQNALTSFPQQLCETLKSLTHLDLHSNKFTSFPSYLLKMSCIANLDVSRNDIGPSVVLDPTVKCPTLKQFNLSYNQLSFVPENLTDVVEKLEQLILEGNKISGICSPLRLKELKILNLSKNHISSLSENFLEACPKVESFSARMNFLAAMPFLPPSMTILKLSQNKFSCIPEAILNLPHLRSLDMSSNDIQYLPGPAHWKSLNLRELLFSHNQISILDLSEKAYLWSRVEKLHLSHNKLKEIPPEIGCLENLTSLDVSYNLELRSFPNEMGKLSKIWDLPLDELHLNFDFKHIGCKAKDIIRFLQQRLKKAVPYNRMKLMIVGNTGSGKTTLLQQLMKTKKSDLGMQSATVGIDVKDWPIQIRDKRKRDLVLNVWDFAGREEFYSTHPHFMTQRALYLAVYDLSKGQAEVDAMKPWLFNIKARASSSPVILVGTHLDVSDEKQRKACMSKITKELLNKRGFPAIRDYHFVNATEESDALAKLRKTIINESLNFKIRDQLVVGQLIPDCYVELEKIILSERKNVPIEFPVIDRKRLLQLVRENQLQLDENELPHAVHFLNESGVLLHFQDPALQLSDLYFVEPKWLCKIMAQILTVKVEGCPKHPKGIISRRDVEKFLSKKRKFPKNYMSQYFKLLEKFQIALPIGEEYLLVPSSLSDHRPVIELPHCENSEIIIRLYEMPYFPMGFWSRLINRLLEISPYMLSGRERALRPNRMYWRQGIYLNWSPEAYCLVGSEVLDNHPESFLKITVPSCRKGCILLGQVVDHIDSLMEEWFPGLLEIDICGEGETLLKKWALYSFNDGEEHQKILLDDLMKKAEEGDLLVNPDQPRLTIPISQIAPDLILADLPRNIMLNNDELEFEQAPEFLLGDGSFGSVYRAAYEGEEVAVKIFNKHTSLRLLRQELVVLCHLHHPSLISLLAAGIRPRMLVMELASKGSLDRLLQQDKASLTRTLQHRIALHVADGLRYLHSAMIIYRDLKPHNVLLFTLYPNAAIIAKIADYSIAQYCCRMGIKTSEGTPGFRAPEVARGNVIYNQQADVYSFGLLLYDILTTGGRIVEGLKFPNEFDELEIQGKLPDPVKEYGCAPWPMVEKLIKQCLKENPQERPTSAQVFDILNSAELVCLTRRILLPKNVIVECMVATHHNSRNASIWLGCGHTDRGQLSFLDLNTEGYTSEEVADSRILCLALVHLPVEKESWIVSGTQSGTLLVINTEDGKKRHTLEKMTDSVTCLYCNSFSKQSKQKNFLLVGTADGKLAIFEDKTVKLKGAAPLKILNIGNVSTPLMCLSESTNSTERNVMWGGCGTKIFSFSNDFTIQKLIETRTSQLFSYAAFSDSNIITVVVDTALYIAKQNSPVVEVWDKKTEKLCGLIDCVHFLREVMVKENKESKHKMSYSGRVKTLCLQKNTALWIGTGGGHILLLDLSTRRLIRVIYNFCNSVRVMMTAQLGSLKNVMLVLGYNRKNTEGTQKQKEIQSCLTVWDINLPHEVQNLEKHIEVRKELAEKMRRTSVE
T3 sequence (Q5S007 whole entry): as the sequence (Q5S007 whole entry G2019S) above, with S2019G counted along it
T2 sequence (Q5S007 whole entry): as the sequence (Q5S007 whole entry G2019S) above, with S2019G counted along it

With `CC1(Oc2ccc3[nH]nc(-c4cc(N5CCN(C[C@H]6CC(=O)N(CC7CCN(c8ccc9c(c8)C(=O)N(C8CCC(=O)NC8=O)C9=O)CC7)C6)CC5)ncn4)c3c2)CC1` (single isomer, unassigned) [Compound 120], the DC50 (on G2019S LRRK2; on wildtype LRRK2; in test [1]) was under 10 nM in each case. The Dmax (at G2019S LRRK2; at wildtype LRRK2; in test [1]) was 50 to 70% in each case.
Consider `C[C@H]1CN(c2cc(-c3[nH]nc4ccc(OC5(C)CC5)cc34)ncn2)CCN1CCC1(F)CCN(CC2CCN(c3ccc4c(c3)CN(C3CCC(=O)NC3=O)C4=O)CC2)CC1` (stereo partly drawn) [Compound 64, 3-[5-[4-[[4-fluoro-4-[2-[(2S)-2-methyl-4-[6-[5-(1-methylcyclopropoxy)-2H-indazol-3-yl]pyrimidin-4-yl]piperazin-1-yl]ethyl]-1-piperidyl]methyl]-1-piperidyl]-1-oxo-isoindolin-2-yl]piperidine-2,6-dione], for which the DC50 (on G2019S LRRK2; on wildtype LRRK2; in test [1]) was under 10 nM in each case. Also, the Dmax (on G2019S LRRK2; on wildtype LRRK2; in test [1]) was at least 70% throughout.
For the molecule `C[C@H]1CN(c2cc(-c3n[nH]c4ccc(OC5(C)CC5)cc34)ncn2)CCN1CCC1(F)CCN(CC2CCN(c3ccc4c(c3)C(=O)N(C3CCC(=O)NC3=O)C4=O)CC2)CC1` (stereo partly drawn) [Compound 52, 2-(2,6-dioxo-3-piperidyl)-5-[4-[[4-fluoro-4-[2-[(2S)-2-methyl-4-[6-[5-(1-methylcyclopropoxy)-1H-indazol-3-yl]pyrimidin-4-yl]piperazin-1-yl]ethyl]-1-piperidyl]methyl]-1-piperidyl]isoindoline-1,3-dione], the DC50 – broadly, the concentration giving 50% degradation – at G2019S LRRK2 is under 10 nM; at wildtype LRRK2, under 10 nM; in test [1], 10 to 50 nM. Also, the Dmax (as a rule, the largest share of the target that was removed) on G2019S LRRK2 was 50 to 70%; on wildtype LRRK2 it was 50 to 70%; in test [1], at least 70%.
As for `CC1(Oc2ccc3[nH]nc(-c4ccnc(N5CC(F)(CN6CCN(CC7CCN(c8ccc9c(c8)C(=O)N(C8CCC(=O)NC8=O)C9=O)CC7)CC6)C5)c4)c3c2)CC1` (stereo not shown) [Compound 132, 2-(2,6-dioxopiperidin-3-yl)-5-[4-({4-[(3-fluoro-1-{4-[5-(1-methylcyclopropoxy)-1H-indazol-3-yl]pyridin-2-yl}azetidin-3-yl)methyl]piperazin-1-yl}methyl)piperidin-1-yl]-2,3-dihydro-1H-isoindole-1,3-dione], the DC50 (on G2019S LRRK2; at wildtype LRRK2; in test [1]) was under 10 nM in each case. For the same molecule, the results for the Dmax (on G2019S LRRK2; on wildtype LRRK2; in test [1]) were 50 to 70%, 50 to 70% and at least 70%, respectively.
For the molecule `CC1(Oc2ccc3n[nH]c(-c4cc(N5CC(OC6CCN(CC7CCN(c8ccc9c(c8)C(=O)N(C8CCC(=O)NC8=O)C9=O)CC7)CC6)C5)ncn4)c3c2)CC1` (stereo not shown) [Compound 130, 2-(2,6-dioxo-3-piperidyl)-5-[4-[[4-[1-[6-[5-(1-methylcyclopropoxy)-2H-indazol-3-yl]pyrimidin-4-yl]azetidin-3-yl]oxy-1-piperidyl]methyl]-1-piperidyl]isoindoline-1,3-dione], the DC50 (at G2019S LRRK2; on wildtype LRRK2; in test [1]) was under 10 nM each time. Further, the Dmax on G2019S LRRK2 was 50 to 70%; at wildtype LRRK2 it was 50 to 70%; in test [1], at least 70%.
Consider `C[C@H]1CN(c2cc(-c3n[nH]c4cc(F)c(OC5(C)CC5)cc34)ncn2)CCN1CC1(F)CCN(CC2CCN(c3ccc4c(c3)C(=O)N(C3CCC(=O)NC3=O)C4=O)CC2)CC1` (stereo partly drawn) [Compound 106, 2-(2,6-dioxo-3-piperidyl)-5-[4-[[4-fluoro-4-[[(2S)-4-[6-[6-fluoro-5-(1-methylcyclopropoxy)-1H-indazol-3-yl]pyrimidin-4-yl]-2-methyl-piperazin-1-yl]methyl]-1-piperidyl]methyl]-1-piperidyl]isoindoline-1,3-dione], for which, on G2019S LRRK2, the DC50 is under 10 nM and the Dmax was under 50%. At wildtype LRRK2, the Dmax is under 50% and the DC50 was under 10 nM.
